# Laboratory results: US6676973B1, “Method of treating ovarian cancers with cadmium” (priority 1995, dated 2004)
# How the values were obtained:
# [1] = test system: A2780 cells; assay: microculture tetrazolium (MTT) cytotoxicity assay, A2780; format: cell-based, human
# Method: (§1) Human ovarian cancer A2780 and A2780/CP70 cells were cultured in monolayer using RPMI 1640 media supplemented with 10% fetal calf serum, 2 mM L-glutamine, 0.2 U insulin/ml, 100 U/ml penicillin, and 100 μg/ml streptomycin (GIBCO, Grands Island, N.Y.). Cells were grown in a humidified chamber containing a mixture of 5% CO2 and ambient air at 37° C. Sensitivity of A2780 and A2780/CP70 cells to Cd and to cisplatin was assessed by microculture tetrazolium (MTT) assay, as described by Alley et al. Briefly, cells were plated at 1000 cells/well in 96-well plates and drug exposure was made the following day. Cadmium dichloride was initially dissolved in double distilled water (Dh2O) at 1.0 mg/ml (5.46 Mm Cadmium), and dilutions from this solution were made in media to obtain the desired drug treatment concentrations of 1 μM, 10 μM, 20 μM, 40 μM, 100 μM, 150 μM and 200 μM. Cisplatin was dissolved in PBS without Ca^++ or Mg^++ at 1.0 mg/ml (3.33 Mm cisplatin), and dilutions from this solution was made in media to obtain the desired drug treatment concentrations of ranging from 1 μM to 300 μM. Drug treatments were for 1 hour.
# (§2) After drug treatments, cells were washed twice with PBS without Ca^++ or Mg^++, treated with fresh drug-free media, and incubated for 5 days. On day 5 after drug treatment, 50 microliter of 3-(4,5-dimethylthiazol-2-yl)-2,5 diphenyltetrazolium bromide (MTT) (400 mg in 200 ml of PBS) were added to each well and incubated for 4 hours at 37° C. Analysis of optical density readings were performed using the VV Deltasoft program on a Macintosh computer (Apple, Inc., Palo Alto, Calif.) and percentage cell growth values were obtained.
# [2] = test system: A2780/CP70 cells; format: cell-based, human
# Method: as §1, §2
smiles,measurement,setting,value
"N.N.[Cl][Pt][Cl] [cisplatin, reference compound]",IC50,"[1]; A2780 cells, 1 hour exposure, MTT, read-out: 50% cell kill (IC50)",16 µM
same,A2780 cells more sensitive to cisplatin than to Cd,"[1]; on a μM basis, 50% cell kill",3.6 fold
same,IC50,"[2]; A2780/CP70 cells, 1 hour exposure, MTT, read-out: 50% cell kill (IC50)",160 µM
same,increase in resistance of A2780/CP70 cells as compared to A2780 cells,[2]; drug exposures associated with 50% cell kill,10 fold
